Source: patent US8652523B2, “Oral pharmaceutical formulation in the form of a plurality of microcapsules for prolonged release of active principle(s) with slow solubility” (Flamel Technologies, priority 2002, dated 2014)
Values after ≈ are worked out from the molar mass of the structure shown.

Assays:
[1] = Increase in solubility of spironolactone in aqueous solution at pH 6.8, 25° C.; type: physicochemical; conditions: pH 6.8, aqueous buffer, without solubilizing agent
[2] = Method for measuring solubility of AP in aqueous solution containing solubilizing agent Cremophor RH 40 (37° C., 6 hours, filtration, HPLC); type: physicochemical
Method: The solution is stirred at 37° C. for 6 hours and then filtered through a filter with a 0.2 μm pore diameter. The content of solubilized AP is evaluated by HPLC chromatography or any other suitable analytical technique.
The ability of the solubilizing agent, made of Cremophor® RH 40, to solubilize an active principle, made up of spironolactone, is tested according to the following method for measuring solubility:
The AP is introduced into an aqueous solution containing the solubilizing agent. The solution is stirred at 37° C. for 6 hours and is then filtered through a filter with a 0.2 μm pore diameter. The content of solubilized AP is evaluated by HPLC.

solubility [1]: ~38 µg/mL (≈ 91.2 µM) | (Spironolactone) dissolved in solution ([2]; Cremophor RH 40 0 % w/w at 37° C.): <0.1 mg/mL | (Spironolactone) dissolved in solution ([2]; Cremophor RH 40 1 % w/w at 37° C.): 0.1 mg/mL | (Spironolactone) dissolved in solution ([2]; Cremophor RH 40 2 % w/w at 37° C.): 0.2 mg/mL | (Spironolactone) dissolved in solution ([2]; Cremophor RH 40 5 % w/w at 37° C.): 0.4 mg/mL | (Spironolactone) dissolved in solution ([2]; Cremophor RH 40 10 % w/w at 37° C.): 0.8 mg/mL | (Spironolactone) dissolved in solution ([2]; Cremophor RH 40 20 % w/w at 37° C.): 1.4 mg/mL
SMILES: CC(=O)S[C@@H]1CC2=CC(=O)CC[C@]2(C)[C@H]2CC[C@@]3(C)[C@@H](CC[C@@]34CCC(=O)O4)[C@H]12 [spironolactone]
